Test results reported in patent publication US20100305113A1, “Substituted Imidazopyridazines as Lipid Kinase Inhibitors” (priority 2007, published 2010).

Experiments:
Type in all cases: biochemical
Conditions in all cases: Enzymatic Data
PI3K beta = target: T1, PI3K beta (Homo sapiens, UniProt P42338); assay: PI3K beta enzymatic assay (Kinase-Glo luminescence)
T1 construct: for the full-length p110-b subunit are generated and fused by overlapping PCR; p85(iSH2) fusion partner (same polypeptide; see partner chain) (N); Gly linker (N); His tag (C); made in house; host or cells: baculovirus; Tn5 (Trichoplusia ni) or TiniPro insect cells
Procedure: (§1) In a more preferred assay, the kinase reaction is performed in a final volume of 10 μL per well of a low volume non binding CORNING, 384 well black plate (Cat. No. #3676). The final concentrations of ATP and phosphatidyl inositol (PI) in the assay are 1 μM and 10 μg/mL respectively. The reaction is started by the addition of ATP.
(§2) The components of the assay are added per well as follows:
(§3) 50 nL test compounds in 90% DMSO per well, in columns 1-20, 8 concentrations (⅓ and 1/3.33 serial dilution step) in single. • Low control: 50 nL of 90% DMSO in half the wells of columns 23-24 (0.45% in final). • High control: 50 nL of reference compound (e.g. compound of Example 7 in WO 2006/122806, incorporated by reference herein that regard) in the other half of columns 23-24 (2.5 μM in final). • Standard: 50 nL of reference compound as just mentioned diluted as the test compounds in columns 21-22 • 20 mL ‘buffer’ are prepared per assay: • 200 μL of 1M TRIS HCl pH7.5 (10 mM in final) • 60 μL of 1M MgCl2 (3 mM in final) • 500 μL of 2M NaCl (50 mM in final) • 100 μL of 10% CHAPS (0.05% in final) • 200 μL of 100 mM DTT (1 mM in final) • 18.94 mL of nanopure water • 10 mL ‘PI’ are prepared per assay: • 200 μL of 1 mg/ml L-alpha-Phosphatidylinositol (Liver Bovine, Avanti Polar Lipids Cat. No. 840042C MW=909.12) prepared in 3% OctylGlucoside ([…]) • 9.8 mL of ‘buffer’ • 10 mL ‘ATP’ are prepared per assay: • 6.7 μL of 3 mM stock of ATP giving a final concentration of 1 μM per well • 10 mL of ‘buffer’ • 2.5 mL of each PI3K construct are prepared per assay in ‘PI’ with the following final concentration: • 10 nM PI3K alfa BV-1075 • 25 nM beta BV-949 • 10 nM delta BV-1060 • 150 nM gamma BV-950 • 5 μL of ‘PI/PI3K’ are added per well. • 5 μl ‘ATP’ are added per well to start the reaction. • The plates are then incubated at room temperature for 60 minutes (alfa, beta, delta) or 120 minutes (gamma). • The reaction is terminated by the addition of 10 μL Kinase-Glo (Promega Cat. No. #6714). • The assay plates are read after 10 minutes in Synergy 2 reader (BioTek, Vermont USA) with an integration time of 100 milliseconds and sensitivity set to 191. • Output: The High control is around 60′000 counts and the Low control is 30′000 or lower • This luminescence assay gives a useful Z′ ratio between 0.4 and 0.7 The Z′ value is a universal measurement of the robustness of an assay. A Z′ between 0.5 and 1.0 is considered an excellent assay.
PI3Kβ BV-949 p85(iSH2)-Gly linker-p110b (Full-Length)-C-Term His Tag
(§4) IC50 is determined by a four parameter curve fitting routine that comes aloneg with “excel fit”. A 4 Parameter logistic equation is used to calculate IC50 values (IDBS XLfit) of the percentage inhibition of each compound at 8 concentrations (usually 10, 3.0, 1.0, 0.3, 0.1, 0.030, 0.010 and 0.003 μM). Alternatively, IC50 values are calculated using idbsXLfit model 204, which is a 4 parameter logistic model.

PI3K gamma = target: T2, PI3K gamma (Homo sapiens, UniProt P48736); assay: PI3K gamma enzymatic assay (Kinase-Glo luminescence)
T2 construct: His tag (C); made in house; host or cells: construct from Roger Williams lab (MRC LMB); baculovirus (pVL1393); Tn5 (Trichoplusia ni) or TiniPro insect cells
Procedure: as §1, §2, §3, §4

PI3K alfa = target: T3, PI3K alfa (Homo sapiens, UniProt P42336); assay: PI3K alfa enzymatic assay (Kinase-Glo luminescence)
T3 construct: p85(iSH2) fusion partner (same polypeptide; see partner chain) (N); 12x Gly linker (N); His tag (C); made in house; host or cells: baculovirus; Tn5 (Trichoplusia ni) or TiniPro insect cells
Procedure: as §1, §2, §3, §4

PI3K delta = target: T4, PI3K delta (Homo sapiens, UniProt O00329); assay: PI3K delta enzymatic assay (Kinase-Glo luminescence)
T4 construct: for the full-length p110-d subunit are generated and fused by overlapping PCR; p85(iSH2) fusion partner (same polypeptide; see partner chain) (N); Gly linker (N); His tag (C); made in house; host or cells: baculovirus; Tn5 (Trichoplusia ni) or TiniPro insect cells
Procedure: as §1, §2, §3
PI3Kδ BV-1060 p85(iSH2)-Gly Linker-p110d (Full-Length)-C-term His Tact
as §4

T2 sequence (P48736 144-1102 limits assumed): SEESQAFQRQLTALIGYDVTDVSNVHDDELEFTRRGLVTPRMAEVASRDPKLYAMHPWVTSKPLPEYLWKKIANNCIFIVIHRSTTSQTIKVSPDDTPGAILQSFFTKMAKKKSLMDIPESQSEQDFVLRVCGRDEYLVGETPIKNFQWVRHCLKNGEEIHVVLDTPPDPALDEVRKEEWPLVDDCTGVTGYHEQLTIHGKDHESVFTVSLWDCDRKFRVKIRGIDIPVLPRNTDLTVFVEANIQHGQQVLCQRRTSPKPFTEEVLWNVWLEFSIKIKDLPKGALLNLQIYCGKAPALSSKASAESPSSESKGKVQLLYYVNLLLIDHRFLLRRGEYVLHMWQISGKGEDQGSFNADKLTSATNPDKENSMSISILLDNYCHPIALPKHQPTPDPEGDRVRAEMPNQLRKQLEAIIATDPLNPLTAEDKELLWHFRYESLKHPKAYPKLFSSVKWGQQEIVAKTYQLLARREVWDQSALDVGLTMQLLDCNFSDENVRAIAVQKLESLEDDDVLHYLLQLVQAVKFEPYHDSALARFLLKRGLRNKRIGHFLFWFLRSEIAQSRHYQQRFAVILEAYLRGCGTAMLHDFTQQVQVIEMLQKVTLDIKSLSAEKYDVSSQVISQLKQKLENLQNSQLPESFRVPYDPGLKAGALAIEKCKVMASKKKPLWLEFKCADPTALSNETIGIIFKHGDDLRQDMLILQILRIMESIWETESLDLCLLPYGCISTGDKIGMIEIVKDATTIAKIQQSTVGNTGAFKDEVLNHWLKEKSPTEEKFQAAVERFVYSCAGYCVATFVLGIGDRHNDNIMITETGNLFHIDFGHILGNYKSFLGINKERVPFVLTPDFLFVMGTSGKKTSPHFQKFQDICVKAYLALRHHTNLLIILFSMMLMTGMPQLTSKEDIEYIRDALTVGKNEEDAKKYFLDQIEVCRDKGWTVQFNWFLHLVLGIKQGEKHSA
T4 sequence (O00329 with tags, fused parts or gaps limits assumed): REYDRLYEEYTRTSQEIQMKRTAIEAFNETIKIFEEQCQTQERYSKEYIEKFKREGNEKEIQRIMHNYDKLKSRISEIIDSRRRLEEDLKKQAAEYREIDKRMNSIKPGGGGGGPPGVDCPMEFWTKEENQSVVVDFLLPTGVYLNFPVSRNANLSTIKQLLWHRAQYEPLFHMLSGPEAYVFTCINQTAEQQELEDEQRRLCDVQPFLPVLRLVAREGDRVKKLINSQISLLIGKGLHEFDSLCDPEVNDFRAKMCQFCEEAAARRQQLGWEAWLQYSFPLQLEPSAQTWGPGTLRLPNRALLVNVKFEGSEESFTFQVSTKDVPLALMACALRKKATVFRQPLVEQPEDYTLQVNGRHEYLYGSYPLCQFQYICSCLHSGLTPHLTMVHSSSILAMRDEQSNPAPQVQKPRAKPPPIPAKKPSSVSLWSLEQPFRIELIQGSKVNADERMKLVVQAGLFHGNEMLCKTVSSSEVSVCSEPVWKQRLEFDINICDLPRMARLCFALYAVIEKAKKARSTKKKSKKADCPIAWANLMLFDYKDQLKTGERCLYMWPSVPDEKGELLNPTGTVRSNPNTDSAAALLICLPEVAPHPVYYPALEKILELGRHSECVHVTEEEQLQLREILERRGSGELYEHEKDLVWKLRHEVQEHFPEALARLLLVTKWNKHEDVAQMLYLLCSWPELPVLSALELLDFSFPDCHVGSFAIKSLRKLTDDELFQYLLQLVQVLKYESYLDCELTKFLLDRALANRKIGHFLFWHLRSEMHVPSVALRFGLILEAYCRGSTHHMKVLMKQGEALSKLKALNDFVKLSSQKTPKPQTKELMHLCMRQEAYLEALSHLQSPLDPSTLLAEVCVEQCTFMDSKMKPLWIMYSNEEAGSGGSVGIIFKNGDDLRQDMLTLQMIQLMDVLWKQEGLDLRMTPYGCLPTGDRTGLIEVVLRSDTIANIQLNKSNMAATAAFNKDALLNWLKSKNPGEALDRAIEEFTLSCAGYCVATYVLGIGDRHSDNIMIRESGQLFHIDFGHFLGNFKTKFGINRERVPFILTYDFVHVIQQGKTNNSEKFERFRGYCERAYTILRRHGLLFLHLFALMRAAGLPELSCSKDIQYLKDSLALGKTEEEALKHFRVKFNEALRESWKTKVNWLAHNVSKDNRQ
T1 sequence (P42338 with tags, fused parts or gaps limits assumed): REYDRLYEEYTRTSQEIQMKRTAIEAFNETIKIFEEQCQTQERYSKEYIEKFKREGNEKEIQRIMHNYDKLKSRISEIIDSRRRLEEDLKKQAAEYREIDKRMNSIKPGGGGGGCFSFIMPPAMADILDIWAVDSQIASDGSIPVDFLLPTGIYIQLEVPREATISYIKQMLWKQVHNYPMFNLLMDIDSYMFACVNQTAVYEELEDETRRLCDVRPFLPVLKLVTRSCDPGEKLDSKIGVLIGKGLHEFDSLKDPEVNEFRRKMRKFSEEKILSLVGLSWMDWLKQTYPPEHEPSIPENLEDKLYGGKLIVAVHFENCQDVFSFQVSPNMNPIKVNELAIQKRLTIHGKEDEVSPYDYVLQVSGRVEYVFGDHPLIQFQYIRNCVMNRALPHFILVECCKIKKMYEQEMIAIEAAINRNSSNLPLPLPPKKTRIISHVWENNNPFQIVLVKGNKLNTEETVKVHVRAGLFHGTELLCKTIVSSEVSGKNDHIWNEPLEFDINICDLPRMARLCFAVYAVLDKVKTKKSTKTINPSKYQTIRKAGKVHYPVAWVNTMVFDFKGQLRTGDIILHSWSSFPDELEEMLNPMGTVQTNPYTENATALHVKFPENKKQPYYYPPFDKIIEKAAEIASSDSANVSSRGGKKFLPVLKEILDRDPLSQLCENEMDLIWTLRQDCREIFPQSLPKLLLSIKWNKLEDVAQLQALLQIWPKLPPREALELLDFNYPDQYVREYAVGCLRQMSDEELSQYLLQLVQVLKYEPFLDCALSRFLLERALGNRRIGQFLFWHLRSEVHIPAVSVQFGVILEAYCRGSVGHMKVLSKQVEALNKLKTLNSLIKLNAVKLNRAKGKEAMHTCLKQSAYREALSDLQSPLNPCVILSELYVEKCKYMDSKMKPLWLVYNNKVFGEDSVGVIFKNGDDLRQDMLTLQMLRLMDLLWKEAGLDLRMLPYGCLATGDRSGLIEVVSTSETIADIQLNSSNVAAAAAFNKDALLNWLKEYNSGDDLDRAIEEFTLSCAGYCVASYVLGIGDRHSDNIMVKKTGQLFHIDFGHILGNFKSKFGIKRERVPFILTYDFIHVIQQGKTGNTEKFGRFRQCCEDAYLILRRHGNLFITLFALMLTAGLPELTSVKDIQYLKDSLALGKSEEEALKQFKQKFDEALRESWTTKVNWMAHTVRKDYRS
T3 sequence (P42336 with tags, fused parts or gaps limits assumed): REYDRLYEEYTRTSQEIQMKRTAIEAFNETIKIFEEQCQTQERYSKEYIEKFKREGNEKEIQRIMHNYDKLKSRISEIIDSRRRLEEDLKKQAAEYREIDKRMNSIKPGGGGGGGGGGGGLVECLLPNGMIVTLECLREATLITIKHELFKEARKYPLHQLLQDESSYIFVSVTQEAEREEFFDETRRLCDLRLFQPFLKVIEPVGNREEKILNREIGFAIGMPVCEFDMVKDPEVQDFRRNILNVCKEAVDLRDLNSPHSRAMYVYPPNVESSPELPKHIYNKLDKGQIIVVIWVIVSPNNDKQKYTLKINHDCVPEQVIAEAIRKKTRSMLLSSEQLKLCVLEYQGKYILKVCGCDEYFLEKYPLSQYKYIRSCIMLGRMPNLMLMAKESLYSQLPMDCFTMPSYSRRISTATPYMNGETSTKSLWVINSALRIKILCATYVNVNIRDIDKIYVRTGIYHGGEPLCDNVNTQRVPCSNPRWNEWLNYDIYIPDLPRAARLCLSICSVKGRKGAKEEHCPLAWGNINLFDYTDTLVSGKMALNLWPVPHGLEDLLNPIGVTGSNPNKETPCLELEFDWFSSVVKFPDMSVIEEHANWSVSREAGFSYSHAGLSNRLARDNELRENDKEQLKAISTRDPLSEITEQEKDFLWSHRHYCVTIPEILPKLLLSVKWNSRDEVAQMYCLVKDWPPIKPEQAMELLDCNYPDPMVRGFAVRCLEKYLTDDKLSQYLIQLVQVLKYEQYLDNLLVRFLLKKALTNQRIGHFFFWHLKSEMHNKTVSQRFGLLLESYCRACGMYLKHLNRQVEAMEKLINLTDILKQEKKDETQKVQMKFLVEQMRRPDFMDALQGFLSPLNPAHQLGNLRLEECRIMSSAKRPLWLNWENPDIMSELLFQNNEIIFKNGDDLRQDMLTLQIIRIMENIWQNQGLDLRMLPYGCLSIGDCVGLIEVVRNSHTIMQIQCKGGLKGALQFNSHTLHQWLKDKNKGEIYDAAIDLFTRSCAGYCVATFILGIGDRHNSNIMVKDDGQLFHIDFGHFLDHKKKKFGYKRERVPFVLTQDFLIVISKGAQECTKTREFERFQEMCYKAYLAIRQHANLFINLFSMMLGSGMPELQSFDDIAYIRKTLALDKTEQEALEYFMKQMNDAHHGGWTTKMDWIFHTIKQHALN

Compound	IC50 (PI3K beta)	IC50 (PI3K gamma)	IC50 (PI3K alfa)	IC50 (PI3K delta)
Cc1nc2ccc(-c3ccc(OCCCN4CCCC4=O)cc3)nn2c1-c1ccc(S(C)(=O)=O)cc1 [Example 106, 1-(3-{4-[3-(4-Methanesulfonyl-phenyl)-2-methyl-imidazo[1,2-b]pyridazin-6-yl]-phenoxy}-propyl)-pyrrolidin-2-one]	> 9100 nM	1060 nM	2200 nM	1040 nM
COc1cc(-c2ccc3nc(C)c(-c4cnc(N)c(C(F)(F)F)c4)n3n2)ccc1OC1CCN(C(=O)OC(C)(C)C)CC1 [Example 92, 4-{4-[3-(6-Amino-5-trifluoromethyl-pyridin-3-yl)-2-methyl-imidazo[1,2-b]pyridazin-6-yl]-2-methoxy-phenoxy}-piperidine-1-carboxylic acid tert-butyl ester]	> 9100 nM	> 9100 nM	1780 nM	> 9100 nM
COc1ccc(-c2ccc3nc(C)c(-c4ccnc(NCc5ccccc5)n4)n3n2)cc1OC [Example 86, Benzyl-{4-[6-(3,4-dimethoxy-phenyl)-2-methyl-imidazo[1,2-b]pyridazin-3-yl]-pyrimidin-2-yl}-amine]	> 9100 nM	8510 nM	2150 nM	4000 nM
Cc1nc2ccc(-c3ccc(OCCCN4CCCC4=O)cc3)nn2c1-c1cnc(N)c(C(F)(F)F)c1 [Example 105, 1-(3-{4-[3-(6-Amino-5-trifluoromethyl-pyridin-3-yl)-2-methyl-imidazo[1,2-b]pyridazin-6-yl]-phenoxy}-propyl)-pyrrolidin-2-one]	6260 nM	518 nM	83 nM	273 nM
COCCOCCOCCOc1ccc(-c2ccc3nc(C)c(-c4ccc(S(C)(=O)=O)cc4)n3n2)cc1OC [Example 90, 3-(4-Methanesulfonyl-phenyl)-6-(3-methoxy-4-{2-[2-(2-methoxy-ethoxy)-ethoxy]-ethoxy}-phenyl)-2-methyl-imidazo[1,2-b]pyridazine]	> 9100 nM	3460 nM	2360 nM	1740 nM
COc1ccc(-c2ccc3nc(C)c(-c4cnc(N)c(C(F)(F)F)c4)n3n2)cc1OCCCNC(=O)c1ccncc1 [Example 97, N-(3-{5-[3-(6-Amino-5-trifluoromethyl-pyridin-3-yl)-2-methyl-imidazo[1,2-b]pyridazin-6-yl]-2-methoxy-phenoxy}-propyl)-isonicotinamide]	> 9100 nM	1330 nM	118 nM	966 nM
COc1cc(-c2ccc3nc(C)c(-c4cnc(N)c(C(F)(F)F)c4)n3n2)ccc1OCCNC(=O)Nc1cccnc1 [Example 51]	> 9100 nM	2520 nM	28 nM	1660 nM
COc1ccc(-c2ccc3nc(C)c(-c4ccn(S(=O)(=O)c5cccc(C#N)c5)n4)n3n2)cc1OC [Example 23, 3-{3-[6-(3,4-Dimethoxy-phenyl)-2-methyl-imidazo[1,2-b]pyridazin-3-yl]-pyrazole-1-sulfonyl}-benzonitrile]	> 9100 nM	511 nM	136 nM	124 nM
COc1ccc(-c2ccc3nc(C)c(-c4ccnc(NCC5CC5)n4)n3n2)cc1OC [Example 87, Cyclopropylmethyl-{4-[6-(3,4-dimethoxy-phenyl)-2-methyl-imidazo[1,2-b]pyridazin-3-yl]-pyrimidin-2-yl}-amine]	> 9100 nM	98 nM	296 nM	357 nM
COc1ccc(-c2ccc3nc(C)c(-c4cnccn4)n3n2)cc1OC [Example 17, 6-(3,4-Dimethoxy-phenyl)-2-methyl-3-pyrazin-2-yl-imidazo[1,2-b]pyridazine]	4480 nM	797 nM	181 nM	2020 nM
COc1ccc(-c2ccc3nc(C)c(-c4ccn(S(=O)(=O)c5ccc(C#N)cc5)n4)n3n2)cc1OC [Example 21, 4-{3-[6-(3,4-Dimethoxy-phenyl)-2-methyl-imidazo[1,2-b]pyridazin-3-yl]-pyrazole-1-sulfonyl}-benzonitrile]	> 9100 nM	655 nM	408 nM	406 nM
COc1ccc(-c2ccc3nc(C)c(-c4ccc(N)nc4)n3n2)cc1OC [Example 7]	976 nM	419 nM	96 nM	694 nM
COc1ccc(-c2ccc3nc(C)c(-c4ccc(N5CCNCC5)nc4)n3n2)cc1OC [Example 11, 6-(3,4-Dimethoxy-phenyl)-2-methyl-3-(6-piperazin-1-yl-pyridin-3-yl)-imidazo[1,2-b]pyridazine]	613 nM	536 nM	110 nM	2390 nM
COc1cccc(NC(=O)NCCOc2ccc(-c3ccc4nc(C)c(-c5cnc(N)c(C(F)(F)F)c5)n4n3)cc2OC)c1 [Example 59]	> 9100 nM	2640 nM	371 nM	> 9100 nM
Cc1nc2ccc(-c3ccc(OCC4(NC(=O)OCc5ccccc5)COC4)cc3)nn2c1-c1cnc(N)c(C(F)(F)F)c1 [Example 112, (3-{4-[3-(6-Amino-5-trifluoromethyl-pyridin-3-yl)-2-methyl-imidazo[1,2-b]pyridazin-6-yl]-phenoxymethyl}-oxetan-3-yl)-carbamic acid benzyl ester]	> 9100 nM	> 9100 nM	821 nM	1820 nM
COc1cc(-c2ccc3nc(C)c(-c4cnc(N)c(C(F)(F)F)c4)n3n2)ccc1OCCNC(=O)Nc1cccc(C(F)(F)F)c1 [Example 93, 1-(2-{4-[3-(6-Amino-5-trifluoromethyl-pyridin-3-yl)-2-methyl-imidazo[1,2-b]pyridazin-6-yl]-2-methoxy-phenoxy}-ethyl)-3-(3-trifluoromethyl-phenyl)-urea]	> 9100 nM	3310 nM	2320 nM	4130 nM
CCOc1ccc(-c2ccc3nc(C)c(-c4ccc(-c5ccc(C#N)nc5)nc4)n3n2)cc1OC [Example 13, 5-[6-(4-Ethoxy-3-methoxy-phenyl)-2-methyl-imidazo[1,2-b]pyridazin-3-yl]-[2,3]bipyridinyl-6′-carbonitrile]	4160 nM	> 25000 nM	58 nM	> 25000 nM
COc1cc(-c2ccc3nc(C)c(-c4cnc(N)c(C(F)(F)F)c4)n3n2)ccc1OCCCNC(=O)C(F)(F)F [Example 85, N-(3-{4-[3-(6-Amino-5-trifluoromethyl-pyridin-3-yl)-2-methyl-imidazo[1,2-b]pyridazin-6-yl]-2-methoxy-phenoxy}-propyl)-2,2,2-trifluoro-acetamide]	> 9100 nM	2590 nM	244 nM	3490 nM
COc1ccc(-c2c(C)nc3ccc(-c4ccc(OC)c(OC)c4)nn23)cn1 [Example 3]	2310 nM	–	96.4 nM	514 nM
